Results published in PMC7112121 (Bioorganic Chemistry, 2019).
Converted amounts (≈) assume the structure as drawn. Where two headings read alike, the source gives them in different places.

Experiments:
Vaccinia virus = test: microbe, parasite or virus in culture; assay type: cell-based; settings: for EC50: Orthopoxvirus vaccinia, HEL, read-out: Antiviral EC50 Vaccinia virus
HSV-2 = test: Antiviral CPE reduction assay, HSV-2 in HEL cells; assay type: cell-based, Herpes simplex virus-2; settings: for EC50: Human alphaherpesvirus 2, HEL, read-out: Antiviral EC50 HSV-2; for Antiviral EC50 HSV-2: HEL cells, CPE by microscopy, mean of two experiments
ACV^r-HSV-1 = test: Antiviral CPE reduction assay, ACVr-HSV-1 in HEL cells; assay type: cell-based; settings: for EC50: Human alphaherpesvirus 1, HEL, read-out: Antiviral EC50 ACV^r-HSV-1; for Antiviral EC50 ACV^r-HSV-1: HEL cells, CPE by microscopy, mean of two experiments
[1] = tested on: human embryonic lung (HEL) fibroblast cells; settings: minimum cytotoxic concentration
VERO cells = settings: minimum cytotoxic concentration
Sindbis virus = test: Antiviral CPE reduction assay, Sindbis virus in VERO cells; assay type: cell-based; settings: for Antiviral EC50 Sindbis virus: VERO cells, CPE by microscopy, mean of two experiments; for EC50: Sindbis virus, Vero, read-out: Antiviral EC50 Sindbis virus
CRFK feline kidney cells = settings: MTS cell viability assay
Coxsackie B4 virus = test: Antiviral CPE reduction assay, Coxsackie B4 virus in VERO cells; assay type: cell-based; settings: for Antiviral EC50 Coxsackie B4 virus: CPE by microscopy, mean of two experiments; for EC50: Enterovirus B, B4, Vero, read-out: Antiviral EC50 Coxsackie B4 virus
Parainfluenza-3 virus = test: Antiviral CPE reduction assay, Parainfluenza-3 virus in VERO cells; assay type: cell-based; settings: for Antiviral EC50 Parainfluenza-3 virus: VERO cells, CPE by microscopy, mean of two experiments; for EC50: Vero, read-out: Antiviral EC50 Parainfluenza-3 virus
HSV-1 = test: Antiviral CPE reduction assay, HSV-1 in HEL cells; assay type: cell-based, Herpes simplex virus-1; settings: for Antiviral EC50 HSV-1: HEL cells, CPE by microscopy, mean of two experiments; for EC50: Human alphaherpesvirus 1, HEL, read-out: Antiviral EC50 HSV-1
Punto Toro virus = test: Antiviral CPE reduction assay, Punto Toro virus in VERO cells; assay type: cell-based, Punta toro virus; settings: for Antiviral EC50 Punto Toro virus: VERO cells, CPE by microscopy, mean of two experiments; for EC50: Punta Toro virus, Vero, read-out: Antiviral EC50 Punto Toro virus
Reovirus-1 = test: Antiviral CPE reduction assay, Reovirus-1 in VERO cells; assay type: cell-based; settings: for Antiviral EC50 Reovirus-1: VERO cells, CPE by microscopy, mean of two experiments; for EC50: Vero, read-out: Antiviral EC50 Reovirus-1
[2] = tested on: Mycobacterium tuberculosis H37Rv; settings: for H37Rv Finding Activity: M. tuberculosis H37Rv, MABA in BACTEC 12B medium
[3] = tested on: Vesicular stomatitis virus; assay type: cell-based
DNA virus = test: Anti-DNA virus activity in HEL cells; assay type: cell-based
Feline herpesvirus = test: Antiviral CPE reduction assay, Feline herpesvirus in CRFK cells; assay type: cell-based; settings: Felid alphaherpesvirus 1, CRFK, read-out: Antiviral EC50 Feline herpesvirus
Feline coronavirus = test: microbe, parasite or virus in culture; settings: Alphacoronavirus 1, CRFK, read-out: Antiviral EC50 Feline coronavirus
[4] = tested on: Mycobacterium tuberculosis H37Rv; test: microbe, parasite or virus in culture
[5] = microscopic inspection of cell morphology

Molecule | EC50 (Vaccinia virus) | EC50 (HSV-2) | EC50 (ACV^r-HSV-1) | Cytotoxicity MCC (VERO cells; [5]) [µg/mL] | Cytotoxicity MCC [1, 5] [µg/mL] | EC50 (Sindbis virus) | EC50 (Coxsackie B4 virus) | EC50 (Parainfluenza-3 virus) | EC50 (HSV-1) | EC50 (Feline herpesvirus) | EC50 (Feline coronavirus) | EC50 (Punto Toro virus) | EC50 (Reovirus-1) | other results
Nc1nc2c(ncn2COCCO)c(=O)[nH]1 [Acyclovir, reference compound] | > 250 µM | 0.5 µM | ≥ 112 µM |  |  |  |  |  |  |  |  |  |  | 
O=c1[nH]c(=O)n([C@H]2C[C@H](O)[C@@H](CO)O2)cc1/C=C/Br [Brivudine, reference compound] |  | 50 µM |  |  |  |  |  |  |  |  |  |  |  | Cytotoxicity MCC ([1]; reference in µM): >250 µM
Nc1ccn(C[C@@H](CO)OCP(=O)(O)O)c(=O)n1 [Cidofovir, reference compound] |  |  |  |  |  |  |  |  |  |  |  |  |  | Cytotoxicity MCC ([1]; reference in µM): >250 µM
O=C(Cc1csc2nc(-c3ccc(Br)cc3)cn12)NN=C1CCCCC1 [Compound 4b, 6-(4-Bromophenyl)-N^2-(cyclohexylidene)imidazo[2,1-b]thiazole-3-acetohydrazide] |  |  |  | >100 | 20 |  |  |  |  |  |  |  |  | Antiviral EC50 Sindbis virus (Sindbis virus): >100 µg/mL; Cytotoxicity CC50 (CRFK feline kidney cells): >100 µg/mL; Antiviral EC50 Vaccinia virus (Vaccinia virus): >100 µg/mL; Antiviral EC50 Coxsackie B4 virus (Coxsackie B4 virus; VERO cells): >100 µg/mL; Antiviral EC50 Parainfluenza-3 virus (Parainfluenza-3 virus): >100 µg/mL; Antiviral EC50 HSV-1 (HSV-1): >100 µg/mL; Antiviral EC50 HSV-2 (HSV-2): >100 µg/mL; Antiviral EC50 Punto Toro virus (Punto Toro virus): >100 µg/mL; Antiviral EC50 Reovirus-1 (Reovirus-1): >100 µg/mL; H37Rv Finding MIC [2]: >100 µg/mL; IC50 [2]: > 100 µg/mL; H37Rv Finding Activity [2]: Inactive; Antiviral EC50 ACV^r-HSV-1 (ACV^r-HSV-1): >100 µg/mL; Antiviral EC50 Vesicular stomatitis virus [3]: >100 µg/mL
O=C(Cc1csc2nc(-c3ccc(Br)cc3)cn12)NN=C1CCC(c2ccc(O)cc2)CC1 (centres unmarked) [Compound 4d, 6-(4-Bromophenyl)–N^2-(4-hydroxyphenylcyclohexylidene)imidazo[2,1-b]thiazole-3-acetohydrazide] |  |  |  | >100 | >100 |  |  |  |  |  |  |  |  | Antiviral EC50 Sindbis virus (Sindbis virus): >100 µg/mL; Cytotoxicity CC50 (CRFK feline kidney cells): 68 µg/mL; Antiviral EC50 Vaccinia virus (Vaccinia virus): 45 µg/mL; Antiviral EC50 Coxsackie B4 virus (Coxsackie B4 virus; VERO cells): >100 µg/mL; Antiviral EC50 Parainfluenza-3 virus (Parainfluenza-3 virus): >100 µg/mL; Antiviral EC50 HSV-1 (HSV-1): 45 µg/mL; Antiviral EC50 HSV-2 (HSV-2): 45 µg/mL; Antiviral EC50 Punto Toro virus (Punto Toro virus): >100 µg/mL; antiviral EC50 values, anti-DNA virus activity (DNA virus): about 45 µg/mL; Antiviral EC50 Reovirus-1 (Reovirus-1): >100 µg/mL; Antiviral EC50 ACV^r-HSV-1 (ACV^r-HSV-1): 45 µg/mL; Antiviral EC50 Vesicular stomatitis virus [3]: >100 µg/mL
O=C(Cc1csc2nc(-c3ccc(Br)cc3)cn12)NN1C(=O)CSC12CCCC2 [Compound 5a, 2-[6-(4-Bromophenyl)imidazo[2,1-b]thiazole-3-yl]-N-(3-oxo-1-thia-4-azaspiro[4.4]non-4-yl)acetamide] | > 100 µg/mL | > 100 µg/mL | > 100 µg/mL | ≥20 | 100 | > 100 µg/mL | > 100 µg/mL | > 100 µg/mL | > 100 µg/mL | > 100 µg/mL | > 100 µg/mL | > 100 µg/mL | > 100 µg/mL | H37Rv Finding MIC [2]: 8.453 µg/mL; H37Rv Finding Activity [2]: Active
O=C(Cc1csc2nc(-c3ccc(Br)cc3)cn12)NN1C(=O)CSC12CCCCC2 [Compound 5b, 2-[6-(4-Bromophenyl)imidazo[2,1-b]thiazole-3-yl]-N-(3-oxo-1-thia-4-azaspiro[4.5]dec-4-yl)acetamide] | > 100 µg/mL | > 100 µg/mL | > 100 µg/mL | >100 | >100 | > 100 µg/mL | > 100 µg/mL | > 100 µg/mL | > 100 µg/mL | > 100 µg/mL | > 100 µg/mL | > 100 µg/mL | > 100 µg/mL | H37Rv Finding MIC [2]: 1.566 µg/mL; H37Rv Finding Activity [2]: Active
O=C(Cc1csc2nc(-c3ccc(Br)cc3)cn12)NN1C(=O)CSC12CCC(c1ccccc1)CC2 (centres unmarked) [Compound 5c, 2-[6-(4-Bromophenyl)imidazo[2,1-b]thiazole-3-yl]-N-(3-oxo-8-phenyl-1-thia-4-azaspiro[4.5]dec-4-yl)acetamide] | > 100 µg/mL | > 100 µg/mL | > 100 µg/mL | 20 | 20 | > 100 µg/mL | > 100 µg/mL | > 100 µg/mL | > 100 µg/mL | > 100 µg/mL | > 100 µg/mL | > 100 µg/mL | > 100 µg/mL | MIC ([4]; read-out: H37Rv Finding MIC): 0.854 µg/mL (≈ 1.47 µM); IC50 ([4]; read-out: H37Rv Finding lC50): 0.76 µg/mL (≈ 1.31 µM); H37Rv Finding Activity [2]: Active
CC1SC2(CCCC2)N(NC(=O)Cc2csc3nc(-c4ccc(Br)cc4)cn23)C1=O (centres unmarked) [Compound 6a, 2-[6-(4-Bromophenyl)imidazo[2,1-b]thiazole-3-yl]-N-(2-methyl-3-oxo-1-thia-4-azaspiro[4.4]non-4-yl)acetamide] | > 100 µg/mL | > 100 µg/mL | > 100 µg/mL | 100 | ≥20 | > 100 µg/mL | > 100 µg/mL | > 100 µg/mL | > 100 µg/mL | > 100 µg/mL | > 100 µg/mL | > 100 µg/mL | > 100 µg/mL | 
CC1SC2(CCCCC2)N(NC(=O)Cc2csc3nc(-c4ccc(Br)cc4)cn23)C1=O (centres unmarked) [Compound 6b, 2-[6-(4-Bromophenyl)imizado[2,1-b]thiazole-3-yl]-N-(2-methyl-3-oxo-1-thia-4-azaspiro[4], [5]dec-4-yl)acetamide] |  |  |  | 100 | 20 |  |  |  |  |  |  |  |  | Antiviral EC50 Sindbis virus (Sindbis virus): >100 µg/mL; Cytotoxicity CC50 (CRFK feline kidney cells): 9.2 µg/mL; Antiviral EC50 Vaccinia virus (Vaccinia virus): >100 µg/mL; Antiviral EC50 Coxsackie B4 virus (Coxsackie B4 virus; VERO cells): >100 µg/mL; Antiviral EC50 Parainfluenza-3 virus (Parainfluenza-3 virus): >100 µg/mL; Antiviral EC50 HSV-1 (HSV-1): >100 µg/mL; Antiviral EC50 HSV-2 (HSV-2): >100 µg/mL; Antiviral EC50 Punto Toro virus (Punto Toro virus): >100 µg/mL; Antiviral EC50 Reovirus-1 (Reovirus-1): >100 µg/mL; Antiviral EC50 ACV^r-HSV-1 (ACV^r-HSV-1): >100 µg/mL; Antiviral EC50 Vesicular stomatitis virus [3]: >100 µg/mL
CC1SC2(CCC(c3ccccc3)CC2)N(NC(=O)Cc2csc3nc(-c4ccc(Br)cc4)cn23)C1=O (centres unmarked) [Compound 6c, 2-[6-(4-Bromophenyl)imidazo[2,1-b]thiazole-3-yl]-N-(2-methyl-8-phenyl-3-oxo-1-thia-4-azaspiro[4.5]dec-4-yl)acetamide] | > 100 µg/mL | > 100 µg/mL | > 100 µg/mL | 20 | 20 | > 100 µg/mL | > 100 µg/mL | > 100 µg/mL | > 100 µg/mL | > 100 µg/mL | > 100 µg/mL | > 100 µg/mL | > 100 µg/mL | 
CC1SC2(CCC(c3ccc(O)cc3)CC2)N(NC(=O)Cc2csc3nc(-c4ccc(Br)cc4)cn23)C1=O (centres unmarked) [Compound 6d, 2-[6-(4-Bromophenyl)imidazo[2,1-b]thiazole-3-yl]-N-(2-methyl-8-(4-hydroxyphenyl)-3-oxo-1-thia-4-azaspiro[4.5]dec-4-yl)acetamide] | > 100 µg/mL | > 100 µg/mL | > 100 µg/mL | ≥20 | ≥20 | > 100 µg/mL | 10 µg/mL | > 100 µg/mL | > 100 µg/mL | > 100 µg/mL | > 100 µg/mL | > 100 µg/mL | > 100 µg/mL | selectivity index (Coxsackie B4 virus; Coxsackie B4 virus, VERO cells): ≥ 2
Nc1nc(O)c2ncn(COC(CO)CO)c2n1 [Ganciclovir, reference compound] | > 100 µM | 0.03 µM | 60 µM |  |  |  |  |  | 0.025 µM | 1.9 µM | > 100 µM |  |  | Cytotoxicity MCC ([1]; reference in µM): >100 µM
NC(=O)c1ncn([C@@H]2O[C@H](CO)[C@@H](O)[C@H]2O)n1 [Ribavirin, reference compound] |  |  |  |  |  | > 250 µM | > 250 µM | 50 µM |  |  |  | 38 µM | > 250 µM | Cytotoxicity MCC (VERO cells; reference in µM): >250 µM
dextran sulphate MW 5,000 [DS-5,000, reference compound] |  |  |  | >100 |  |  |  |  |  |  |  |  |  | Antiviral EC50 Parainfluenza-3 virus (Parainfluenza-3 virus): >100 µg/mL; Antiviral EC50 Reovirus-1 (Reovirus-1): ≥100 µg/mL
Urtica dioica agglutinin (protein, UniProt P11218 24-372, looked up) Lectin/endochitinase 1: QRCGSQGGGGTCPALWCCSIWGWCGDSEPYCGRTCENKCWSGERSDHRCGAAVGNPPCGQDRCCSVHGWCGGGNDYCSGSKCQYRCSSSVRGPRVALSGNSTANSIGNVVVTEPLFDQMFSHRKDCPSQGFYSYHSFLVAAESFPAFGTIGDVATRKREVAAFLAHISQATSGERSDVENPHAWGLCHINTTTVTENDFCTSSDWPCAAGKKYSPRGPIQLTHNFNYGLAGQAIGEDLIQNPDLVEKDPIISFKTALWFWMSQHDNKPSCHDIVLNANSAANRIPNKGVIGNIISRAFGHDDFAVRSSSIGFYKRYCDMLGVSYGHDLKYWFDNTPSSEFQRIQMRVAA |  |  |  |  |  |  |  |  |  |  |  |  |  | Cytotoxicity CC50 (CRFK feline kidney cells): 29 µg/mL
